Laboratory results taken from ChEMBL document CHEMBL1137794, “Didemnins and tunichlorin: novel natural products from the marine tunicate Trididemnum solidum” (J Nat Prod, 1988).
Values after ≈ are worked out from the molar mass of the structure shown. Active and inactive are the calls of the source. The rule behind the calls is not given here. *1 amine or outer side, *2 acyl side, *3 side chain or, on linkers, in order; H or OH if unused. Where a SMILES comes first, the peptide text is derived from it. Bridges are numbered along the chain shown (N, C = ends). [ ]: non-standard residue; d: D form. X1 = CC[C@H](C)[C@@H](N[*:1])[C@@H](O)CC(=O)O[C@H](C(=O)[C@H](C)C(=O)[*:2])C(C)C; NMeY = CN[C@@H](Cc1ccc(O)cc1)C(=O)O; dNMeL = CN[C@H](CC(C)C)C(=O)O; Lac = C[C@H](O)C(=O)O

Experiments:
Rift Valley fever virus [1] = test: Antiviral activity against Rift Valley fever virus infected in african green monkey Vero cells assessed as plaque reduction at 250 ug/mL; assay type: functional, organism-based
[2] = test system: Venezuelan equine encephalitis virus; test: Antiviral activity against Venezuelan equine encephalomyelitis virus infected in african green monkey Vero cells assessed as plaque reduction at 250 ug/mL; assay type: functional, organism-based
Yellow fever virus [3] = test: Antiviral activity against Yellow fever virus infected in rhesus monkey MK2 cells assessed as plaque reduction at 250 ug/mL; assay type: functional, organism-based
[4] = test system: Sandfly fever Sicilian virus; test: Antiviral activity against Sandfly fever virus assessed as plaque reduction at 250 ug/mL; assay type: functional, organism-based
T-cell [5] = test: Immunosuppressive activity in rat T cell assessed as inhibition of mitogenesis
T-cell [6] = test: Immunosuppressive activity in baboon T cell assessed as inhibition of mitogenesis; settings: Papio hamadryas
T-cell [7] = test: Immunosuppressive activity in human T cell assessed as inhibition of mitogenesis; assay type: functional, cell-based
B cell = test: Immunosuppressive activity in human B cell assessed as inhibition of mitogenesis
Lymphocyte [8] = test: Immunosuppressive activity in human lymphocytes by mixed lymphocyte reaction assay; assay type: functional, cell-based
Lymphocyte [9] = test: Immunosuppressive activity in baboon lymphocytes by mixed lymphocyte reaction assay; settings: Papio hamadryas
Lymphocyte [10] = test: Immunosuppressive activity in human lymphocytes assessed as inhibition of protein synthesis
L1210 = test: Cytotoxicity against mouse L1210 cells; assay type: functional; settings: read-out: ID50 (the source's name)
P388 = test: Antitumor activity against mouse P388 cells xenografted mouse assessed as extend the life time at 0.03 to 1 mg/kg, ip; assay type: functional; settings: dose mg/kg 0.03-1; route intraperitoneal
[11] = test system: Venezuelan equine encephalitis virus; test: Antiviral activity against Venezuelan equine encephalomyelitis virus infected in african green monkey Vero cells assessed as plaque reduction at 0.05 ug/mL; assay type: functional, organism-based
Yellow fever virus [12] = test: Antiviral activity against Yellow fever virus infected in rhesus monkey MK2 cells assessed as plaque reduction at 0.05 ug/mL; assay type: functional, organism-based
[13] = test system: Sandfly fever Sicilian virus; test: Antiviral activity against Sandfly fever virus assessed as plaque reduction at 0.05 ug/mL; assay type: functional, organism-based
Mus musculus [14] = organism: Mus musculus; test: Toxicity in mouse; assay type: organism-based; settings: in vivo
Mus musculus [15] = test: Toxicity in mouse P388 cells xenografted mouse at 0.5 mg/kg, ip administered on day 1 to day 9; assay type: organism-based; set-up: dose 0.5 mg/kg, route intraperitoneal; settings: in vivo
Mus musculus [16] = test: Toxicity in mouse P388 cells xenografted mouse at 0.06 mg/kg, ip administered on day 1 to day 9; assay type: organism-based; set-up: dose 0.06 mg/kg, route intraperitoneal; settings: in vivo
Mus musculus [17] = test: Toxicity in mouse P388 cells xenografted mouse assessed as change in body weight at 0.06 mg/kg, ip administered on day 1 to day 9; assay type: organism-based; set-up: dose 0.06 mg/kg, route intraperitoneal; settings: in vivo
Mus musculus [18] = test: Toxicity in mouse P388 cells xenografted mouse assessed as change in body weight at 0.25 mg/kg, ip administered on day 1 to day 9; assay type: organism-based; set-up: dose 0.25 mg/kg, route intraperitoneal; settings: in vivo
Mus musculus [19] = test: Toxicity in mouse P388 cells xenografted mouse assessed as change in body weight at 0.5 mg/kg, ip administered on day 1 to day 9; assay type: organism-based; set-up: dose 0.5 mg/kg, route intraperitoneal; settings: in vivo
Mus musculus [20] = test: Toxicity in mouse P388 cells xenografted mouse assessed as change in body weight at 1 mg/kg, ip administered on day 1 to day 9; assay type: organism-based; set-up: dose 1 mg/kg, route intraperitoneal; settings: in vivo
Mus musculus [21] = test: Toxicity in mouse P388 cells xenografted mouse assessed as change in body weight at 0.03 mg/kg, ip administered on day 1, 5 and day 9; assay type: organism-based; set-up: dose 0.03 mg/kg, route intraperitoneal
Mus musculus [22] = test: Toxicity in mouse P388 cells xenografted mouse assessed as change in body weight at 0.06 mg/kg, ip administered on day 1, 5 and day 9; assay type: organism-based; set-up: dose 0.06 mg/kg, route intraperitoneal; settings: in vivo
Mus musculus [23] = test: Toxicity in mouse P388 cells xenografted mouse assessed as change in body weight at 0.25 mg/kg, ip administered on day 1, 5 and day 9; assay type: organism-based; set-up: dose 0.25 mg/kg, route intraperitoneal; settings: in vivo
Mus musculus [24] = test: Toxicity in mouse P388 cells xenografted mouse assessed as change in body weight at 0.5 mg/kg, ip administered on day 1, 5 and day 9; assay type: organism-based; set-up: dose 0.5 mg/kg, route intraperitoneal; settings: in vivo
Mus musculus [25] = test: Toxicity in mouse P388 cells xenografted mouse assessed as change in body weight at 1 mg/kg, ip administered on day 1, 5 and day 9; assay type: organism-based; set-up: dose 1 mg/kg, route intraperitoneal; settings: in vivo
Mus musculus [26] = test: Toxicity in mouse B16 cells xenografted mouse at 0.5 mg/kg, ip administered on day 1 to day 9; assay type: organism-based; set-up: dose 0.5 mg/kg, route intraperitoneal; settings: in vivo
Mus musculus [27] = test: Toxicity in mouse B16 cells xenografted mouse assessed as change in body weight at 0.03 mg/kg, ip administered on day 1 to day 9; assay type: organism-based; set-up: dose 0.03 mg/kg, route intraperitoneal; settings: in vivo
Mus musculus [28] = test: Toxicity in mouse B16 cells xenografted mouse assessed as change in body weight at 0.06 mg/kg, ip administered on day 1 to day 9; assay type: organism-based; set-up: dose 0.06 mg/kg, route intraperitoneal; settings: in vivo
Mus musculus [29] = test: Toxicity in mouse B16 cells xenografted mouse assessed as change in body weight at 0.25 mg/kg, ip administered on day 1 to day 9; assay type: organism-based; set-up: dose 0.25 mg/kg, route intraperitoneal; settings: in vivo
Mus musculus [30] = test: Toxicity in mouse B16 cells xenografted mouse assessed as change in body weight at 0.5 mg/kg, ip administered on day 1 to day 9; assay type: organism-based; set-up: dose 0.5 mg/kg, route intraperitoneal; settings: in vivo
Mus musculus [31] = test: Toxicity in mouse B16 cells xenografted mouse assessed as change in body weight at 0.06 mg/kg, ip administered on day 1, 5 and day 9; assay type: organism-based; set-up: dose 0.06 mg/kg, route intraperitoneal; settings: in vivo
Mus musculus [32] = test: Toxicity in mouse B16 cells xenografted mouse assessed as change in body weight at 0.25 mg/kg, ip administered on day 1, 5 and day 9; assay type: organism-based; set-up: dose 0.25 mg/kg, route intraperitoneal; settings: in vivo
Mus musculus [33] = test: Toxicity in mouse B16 cells xenografted mouse assessed as change in body weight at 0.5 mg/kg, ip administered on day 1, 5 and day 9; assay type: organism-based; set-up: dose 0.5 mg/kg, route intraperitoneal; settings: in vivo
Mus musculus [34] = test: Toxicity in mouse B16 cells xenografted mouse assessed as change in body weight at 1 mg/kg, ip administered on day 1, 5 and day 9; assay type: organism-based; set-up: dose 1 mg/kg, route intraperitoneal; settings: in vivo
Rattus norvegicus = organism: Rattus norvegicus; test: Toxicity in rat; assay type: organism-based; settings: in vivo
Canis familiaris = organism: Canis familiaris; test: Toxicity in dog; assay type: organism-based, Canis lupus familiaris; settings: in vivo
Mus musculus [35] = organism: Mus musculus; test: Immunosuppressive activity in spleen cells transformed mouse assessed as inhibition of splenomegaly by graft-versus-host reaction assay; assay type: functional, organism-based
Rift Valley fever virus [36] = test: Antiviral activity against Rift Valley fever virus infected in african green monkey Vero cells assessed as plaque reduction at 0.05 ug/mL; assay type: functional, organism-based

In the case of `NC(=O)c1ncn([C@@H]2O[C@H](CO)[C@@H](O)[C@H]2O)n1`, the Activity (Rift Valley fever virus [1]) was “Active”, the Activity [2] was “Active” and the Activity (Yellow fever virus [3]) was “Active”. The Activity [4] was “Active”.

`Cn1cnc([N+](=O)[O-])c1Sc1ncnc2[nH]cnc12` [AZATHIOPRINE] was tested, and the IC50 (T-cell [5]) was 2 µg/mL (≈ 7.21 µM), the IC50 (T-cell [6]) was 0.4 µg/mL (≈ 1.44 µM) and the IC50 (T-cell [7]) was 9 µg/mL (≈ 32.5 µM). For the same molecule, the IC50 (B cell) was 1 µg/mL (≈ 3.61 µM), the IC50 (Lymphocyte [8]) was 3 µg/mL (≈ 10.8 µM) and the IC50 (Lymphocyte [9]) was 2.9 µg/mL (≈ 10.5 µM). For the same molecule, the IC50 (Lymphocyte [10]) was 85 µg/mL (≈ 307 µM).

Work on `CC[C@H](C)[C@H]1NC(=O)[C@@H](NC(=O)[C@@H](CC(C)C)NC)[C@@H](C)OC(=O)[C@H](Cc2ccc(OC)cc2)N(C)C(=O)[C@@H]2CCCN2C(=O)[C@H](CC(C)C)NC(=O)[C@@H](C)C(=O)[C@H](C(C)C)OC(=O)C[C@@H]1O` [DIDEMNIN A] (H-[dNMeL]T[X1]LP[NMeY](Me); ester 2-C) yielded an IC50 (L1210) of 0.002 µg/mL (≈ 0.00212 µM) and an Activity (P388) of 100%.

In the case of `CC[C@H](C)[C@H]1NC(=O)[C@@H](NC(=O)[C@@H](CC(C)C)N(C)C(=O)[C@@H]2CCCN2C(=O)C(C)O)[C@@H](C)OC(=O)[C@H](Cc2ccc(OC)cc2)N(C)C(=O)[C@@H]2CCCN2C(=O)[C@H](CC(C)C)NC(=O)[C@@H](C)C(=O)[C@H](C(C)C)OC(=O)C[C@@H]1O` (some centres not stated) [DIDEMNIN B], the Activity [11] was “Active”, the Activity (Yellow fever virus [12]) was “Active” and the Activity [13] was “Active”. For the same molecule, the Activity (Mus musculus [14]) was “Toxic”, the Activity (Mus musculus [15]) was “Toxic” and the Activity (Mus musculus [16]) was “Toxic”. For the same molecule, the Activity (Mus musculus [17]) was 0.1 g, the Activity (Mus musculus [18]) was -2.2 g and the Activity (Mus musculus [19]) was -3.4 g. For the same molecule, the Activity (Mus musculus [20]) was “Toxic”, the body weight change (Mus musculus [21]) was 1600 mg and the Activity (Mus musculus [22]) was 1.2 g. The Activity (Mus musculus [23]) was -0.5 g, the Activity (Mus musculus [24]) was -1.7 g and the Activity (Mus musculus [25]) was -3.8 g. For the same molecule, the Activity (Mus musculus [26]) was “Toxic”, the Activity (Mus musculus [27]) was 0.8 g and the Activity (Mus musculus [28]) was -0.4 g. It also gave an Activity (Mus musculus [29]) of -3.3 g, an Activity (Mus musculus [30]) of -4.5 g and an Activity (Mus musculus [31]) of 1.2 g. The Activity (Mus musculus [32]) was 0.3 g, the Activity (Mus musculus [33]) was -1.3 g and the Activity (Mus musculus [34]) was -3.2 g. The Activity (Rattus norvegicus) was “Toxic”, the Activity (Canis familiaris) was “Toxic” and the inhibition (Mus musculus [35]) was “Dose-dependent effect”. The Activity (Rift Valley fever virus [36]) was “Active”.

Work on `CC[C@H](C)[C@H]1NC(=O)[C@@H](NC(=O)[C@@H](CC(C)C)N(C)C(=O)[C@H](C)O)[C@@H](C)OC(=O)[C@H](Cc2ccc(OC)cc2)N(C)C(=O)[C@@H]2CCCN2C(=O)[C@H](CC(C)C)NC(=O)[C@@H](C)C(=O)[C@H](C(C)C)OC(=O)C[C@@H]1O` [DIDEMNIN C] (H-[Lac][dNMeL]T[X1]LP[NMeY](Me); ester 3-C) yielded an IC50 (L1210) of 0.002 µg/mL (≈ 0.00197 µM).
